Reference: publication PMC11472310, “Distinctive Immune Signatures Driven by Structural Alterations in Desmuramylpeptide NOD2 Agonists” (Journal of Medicinal Chemistry, 2024)

Key:
[1] = system: CD8+ T cells cocultured with BMDCs; experiment: BMDC antigen cross-presentation to ovalbumin-specific CD8+ T cells (OT I); format: cell-based, C57BL/6 mouse; conditions: BMDCs pretreated 10 μM + ovalbumin 50 μg/mL 18 h, coculture 72 h; OVA-treated cells 23.3%
Description: (§1) For this study, we narrowed down the selection of suitable desmuramylpeptides even further. In order to assess the adjuvant potential of selected desmuramylpeptides with regard to their effect on DC-mediated activation of CD4^+ and CD8^+ T cells, we conducted an ex vivo antigen-presentation assay utilizing C57BL/6 mouse bone marrow-derived DCs (BMDCs). Upon stimulation with desmuramylpeptides at 10 μM, in conjunction with ovalbumin soluble protein (50 μg/mL), BMDCs were cocultured with carboxyfluorescein succinimidyl ester (CFSE)-labeled naïve ovalbumin-specific CD4^+ or CD8^+ T cells, which were isolated from splenocytes of OT II and OT I transgenic mice, respectively. […] Additionally, we investigated how the priming of T cells elicited by the tested compounds impacted the cytokine profiles secreted in BMDC/T-cell cocultures.
CD4^+ and CD8^+ T cells were isolated from splenocytes of OT II and OT I transgenic mice using CD4^+ and CD8^+ T cell isolation kits (Miltenyi Biotec, Germany) following the manufacturer’s instructions. The purified T cells were labeled with CFSE (Invitrogen, Carlsbad, CA, USA) and subsequently washed. Next, 5 × 10^4 T cells were combined with 1 × 10^4 BMDCs/well (pretreated with desmuramylpeptides at 10 μM and 50 μg/mL ovalbumin [Invivogen, San Diego, CA, USA] for 18 h and then washed). Following a 72-h incubation period at 37 °C with 5% CO2, supernatants were harvested and stored at −80 °C for cytokine analysis. The cells were then stained with Fixable viability dye eFluor 780 (eBioscience, Thermo Fisher Scientific, MA, USA), anti-Thy1.2-PE-Cy7 antibodies (Biolegend, San Diego, CA, USA), anti-CD8-eFluor450 antibodies (eBioscience), anti-CD4-eFluor450 antibodies (eBioscience), and anti-CD25-APC antibodies (Biolegend) before analysis using a Beckman Coulter Cytoflex S flow cytometer (CA, USA) and FlowJo software (Tree Star, Inc., Ashland, OR, USA). Live Thy1.2+/CD4+ and Thy1.2+/CD8+ cells were assessed for CFSE dilution and CD25 expression. […] Statistical significance was determined using paired t tests.

[2] = system: CD4+ T cells cocultured with BMDCs; experiment: BMDC antigen presentation to ovalbumin-specific CD4+ T cells (OT II); format: cell-based, C57BL/6 mouse; conditions: BMDCs pretreated 10 μM + ovalbumin 50 μg/mL 18 h, coculture 72 h; OVA-treated cells 63.8%
Description: as §1
CD4^+ and CD8^+ T cells were isolated from splenocytes of OT II and OT I transgenic mice using CD4^+ and CD8^+ T cell isolation kits (Miltenyi Biotec, Germany) following the manufacturer’s instructions. The purified T cells were labeled with CFSE (Invitrogen, Carlsbad, CA, USA) and subsequently washed. Next, 5 × 10^4 T cells were combined with 1 × 10^4 BMDCs/well (pretreated with desmuramylpeptides at 10 μM and 50 μg/mL ovalbumin [Invivogen, San Diego, CA, USA] for 18 h and then washed). Following a 72-h incubation period at 37 °C with 5% CO2, supernatants were harvested and stored at −80 °C for cytokine analysis. The cells were then stained with Fixable viability dye eFluor 780 (eBioscience, Thermo Fisher Scientific, MA, USA), anti-Thy1.2-PE-Cy7 antibodies (Biolegend, San Diego, CA, USA), anti-CD8-eFluor450 antibodies (eBioscience), anti-CD4-eFluor450 antibodies (eBioscience), and anti-CD25-APC antibodies (Biolegend) before analysis using a Beckman Coulter Cytoflex S flow cytometer (CA, USA) and FlowJo software (Tree Star, Inc., Ashland, OR, USA). Live Thy1.2+/CD4+ and Thy1.2+/CD8+ cells were assessed for CFSE dilution and CD25 expression. Each experiment was performed in duplicate and repeated in two independent biological replicates. Statistical significance was determined using paired t tests.

[3] = system: PBMCs; experiment: Direct cytotoxic effect of compounds on PBMCs (Sytox blue); format: cell-based; conditions: Table S2; for Percent of dead PBMCs, + LPS: 10 μM + LPS 1 μg/mL; for Percent of dead PBMCs: alone: compounds 10 μM, LPS 1 μg/mL, IL-2 200 U/mL
Description: Additionally, PBMCs and cancer cells alone were treated with desmuramylpeptides to assess any direct cytotoxic effects on these cells.
The PBMC cytotoxicity assays utilizing K562 cells were conducted following previously established methods, with some adjustments.[82] […] Meanwhile, K562 cells were stained with CFSE (Invitrogen, Carlsbad, CA, USA), washed twice with complete medium, and then added (1 × 10^4 cells per well) to the pretreated PBMCs to achieve a final effector cell to target tumor cell ratio of 40:1. Following a 4-h coincubation period at 37 °C with 5% CO2, cells were stained with Sytox blue dead cell stain (Invitrogen) and analyzed using an Attune NxT flow cytometer (Thermo Fisher Scientific, Waltham, MA, USA) along with FlowJo software (Tree Star, Inc., Ashland, OR, USA). Cells positive for both CFSE and Sytox blue were designated as dead K562 cells. PBMCs alone and CFSE-labeled cancer cells alone were also exposed to the compounds at equivalent concentrations and stained with Sytox blue to assess any direct cytotoxic effects of the compounds on PBMCs and cancer cells separately. Each experiment was conducted in duplicate and repeated in three independent biological replicates. Statistical analysis was performed using one-way ANOVA followed by Dunnett’s multiple comparisons test.

[4] = system: BMDC/T-cell cocultures; experiment: T cell cytokine release in BMDC/T-cell cocultures; format: cell-based, C57BL/6 mouse; conditions: 10 μM; for levels of IL-6 and TNF-α secreted by CD4+ T cells: 72 h coculture
Description: as §1
Following 72 h of coincubation with BMDCs (pretreated with desmuramylpeptides [10 μM] and washed), supernatants from CD4^+ and CD8^+ T cells were harvested as previously described. […] Standard curves were constructed using recombinant cytokines provided in the kit. Data analysis was conducted using FlowJo (Tree Star, Inc., Ashland, OR, USA) and Prism (GraphPad, San Diego, CA, USA) software. Each experiment was performed in duplicate and replicated in two independent biological runs.

[5] = system: human blood monocyte subsets; experiment: Monocyte conversion assay in PBMCs (CD14/CD16 flow cytometry); format: cell-based; conditions: 10 μM, 18 h, NT 19.5%
Text: Engagement of NOD2 has been reported to increase the levels of an anti-inflammatory monocyte subset, denoted as patrolling monocytes (CD14^–, CD16^+2), thus exerting a counterintuitive role in inflammatory processes, while concomitantly increasing the levels of total blood monocytes (released from bone marrow).[18] […] This process involves a transition from the inflammatory monocytes, typified by CD14^+CD16^–, through an intermediate subset of CD14^+CD16^+ monocytes. […] To recapitulate this phenomenon, we modified the reported procedure and employed PBMCs in lieu of isolated monocytes. Identification of human blood monocyte subsets was achieved through flow cytometry, utilizing the expression of CD14 and CD16 markers as distinguishing criteria. […] Similar to what has been reported (e.g., inactivity of murabutide),[18] also in our case not all NOD2 agonists were equally endowed with the ability to generate patrolling monocytes.
The monocyte conversion assay was conducted following previously established methods, with some adjustments.[18] Peripheral blood mononuclear cells were plated at a density of 3 × 10^6 cells/mL in 24-well plates containing 700 μL of growth medium. Cells were then treated with MDP and desmuramylpeptides (10 μM) or the corresponding vehicle (0.1% DMSO). Following an incubation period at 37 °C with 5% CO2, cells were transferred to 1.5 mL tube using phosphate-buffered saline (PBS) and scraper. The cells were blocked with human TruStain Fcx (BioLegend) and stained using antihuman CD16 antibodies/Alexa Fluor 488 (BioLegend); antihuman CD14 antibodies/PE-Cy7 (BioLegend); antihuman HLA-DR antibodies/APC-Fire750 (BioLegend) and blocked with TrueStain Monocyte Blocker. A viability dye Helix NP Blue (BioLegend) was added to the previous panel to discriminate live cells. PBMC were analyzed using an Attune NxT flow cytometer (Thermo Fisher Scientific, Waltham, MA, USA) and the FlowJo software (Tree Star, Inc., Ashland, OR, USA). Initially, lymphocytes (CD14^–, CD16^–) and NK (CD16^–, HLA-DR^–) were eliminated, after which classical, intermediate and nonclassical monocytes were specifically identified by selective gating strategy as follows: CD14^+ CD16^– (classical), CD14^+ CD16^+ (intermediate) and CD14^– CD16^+ (nonclassical). Each experiment was conducted in duplicate and repeated in three independent biological replicates.

SMILES | fraction of activated and proliferating CD8+ T-cells (CD25+, CFSE low) [1] [%] | fraction of activated and proliferating CD4+ T-cells (CD25+, CFSE low) [2] [%] | Percent of dead PBMCs, + LPS [3] | Percent of dead PBMCs [3] | levels of IL-6 and TNF-α secreted by CD4+ T cells [4] | stimulating IL-2 and IL-9 production ([4]; CD4+ T cell coculture, 72 h) | levels of nonclassical monocytes [5] [%] | production of the Th9-associated cytokine IL-9 ([4]; CD4+ T cell coculture, 72 h)
CCCC(=O)Oc1ccc(/C=C/C(=O)NCC(=O)N[C@H](C(=O)N[C@H](CCC(=O)OCC)C(=O)OCC)C(C)C)cc1OC [Compound 3, Diethyl ((E)-3-(4-(Butyryloxy)-3-methoxyphenyl)acryloyl)glycyl-L-valyl-D-glutamate] | 29.3 | 77.9 | 3.34% ± 0.35% | 1.14% ± 0.23% | slightly increased | most notable | 31.9 | –
CC/C=C\C/C=C\C/C=C\C/C=C\C/C=C\CCCC(=O)Oc1ccc(/C=C/C(=O)NCC(=O)N[C@H](C(=O)N[C@H](CCC(=O)OCC)C(=O)OCC)C(C)C)cc1OC [Compound 23, Diethyl ((E)-3-(4-(((5Z,8Z,11Z,14Z,17Z)-Icosa-5,8,11,14,17-pentaenoyl)oxy)-3-methoxyphenyl)acryloyl)glycyl-L-valyl-D-glutamate] | 34.1 | 79.7 | 11.4% ± 2.64% | 1.28% ± 0.06% | slightly increased | most notable | 31.0 | augmented
CCOC(=O)CC[C@@H](NC(=O)[C@@H](NC(=O)CNC(=O)/C=C/c1ccc(OC(=O)CO[C@H]2CC[C@@]3(C)C(=CC[C@H]4[C@@H]5CC[C@H]([C@H](C)CCCC(C)C)[C@@]5(C)CC[C@@H]43)C2)c(OC)c1)C(C)C)C(=O)OCC [Compound 26, Diethyl ((E)-3-(4-(2-(((8S,9S,10R,13R,14S,17R)-10,13-Dimethyl-17-((R)-6-methylheptan-2-yl)-2,3,4,7,8,9,10,11,12,13,14,15,16,17-tetradecahydro-1H-cyclopenta[a]phenanthren-3-yl)oxy)acetoxy)-3-methoxyphenyl)acryloyl)glycyl-L-valyl-D-glutamate] | – | 62.7 | 9.93% ± 0.49% | 1.08% ± 0.10% | – | – | 44.8 | –
